How the values were obtained:
Assay type in all cases: cell-based
CCR5 = CCR5 knockdown in Magi.CCR5 reporter cells (PCR and flow cytometry)
From the text: FIGS. 5A-5C. Wobble base CCR5 shRNAs functionality. FIG. 5A. Quantitative PCR analysis of MAGI.CCR5 cells transduced with protection CAR (shCCR5w shTat/Rev anti-HIV CAR), compared to mock-transduced cells and cells transduced with conventional anti-HIV CAR without the shRNA. Decreased levels of CCR5 mRNA indicate successful knock-down using the protection CAR. FIG. 5B. CCR5 surface expression on MAGI.CCR5 cells transduced with the protection CAR compared to CCR5 expression on mock-transduced cells and on cells transduced with anti-HIV CAR without the shRNA. FIG. 5C. CCR5 surface expression on T-cells transduced with protection CAR (shCCR5w shTat/Rev anti-HIV CAR), compared to mock-transduced cells and cells transduced with conventional anti-HIV CAR without the shRNA. Decreased levels of CCR5 are indicative of successful knockdown using anti-CCR5 shRNA.
Next, Applicant determined whether the shRNAs were functional. To test the shCCR5, Applicant transfected the protection and conventional CAR into Magi reporter line expressing CCR5 (Magi.CCR5). […] To confirm knock-down of CCR5, Applicant transduced T-cells with protection and conventional anti-HIV CAR constructs and analyzed CCR5 surface expression.

HPRT = test: Quantitative PCR of HPRT expression after transfection of shHPRT plasmid in Jurkat cells; details: transfected with shHPRT plasmid, FIG. 2A
Experimental: (§1) FIGS. 2A-2D. 6TG selection of HPRT repressed CAR T-cells. FIG. 2A. Quantitative PCR analysis of HPRT expression following transfection of shHPRT plasmid. Untransfected Jurkat cells were used as a control. FIG. 2B. N6 CAR (control) or shHPRT-N6 CAR were transduced into Jurkat cells and co-cultured with either gp120 expressing HEK293 cells or HEK293 parental cells for 24 hours. Following incubation, the Jurkat cells were analyzed for CD69 expression by flow cytometry. FIG. 2C.

Jurkat cells = test: 6TG selection of shHPRT-N6 CAR expressing Jurkat cells; details: Jurkat cells, 0, 1, or 3 uM 6TG for four days, trypan blue
Experimental: as §1

[1] = system: gp160-expressing HEK293 cells; test: CD69 activation of 6TG enriched anti-HIV CAR Jurkat cells co-cultured with gp160-expressing HEK293 cells; details: 24 hour incubation, 6TG selected vs unselected anti-HIV CAR Jurkat cells
Experimental: Following a 24 hour incubation, CD69 expression was analyzed.

T-cells [2] = test: Growth and phenotype of enrichment anti-HIV CAR T-cells after 6TG selection
T-cells [3] = test: 6TG dose titration and multi-dosing selection of enrichment anti-HIV CAR T-cells
Experimental: The cell counts of the T-cells, in addition to anti-HIV CAR expression percentage were measured over the course of culturing.

shCCR5w: anti-CCR5 shRNA wobble base, SEQ ID NO: 11 (AGUGUCAAGUCCAAUUUGUGGUUCAAGAGAUCAUAGAUUGGACUUGACACUUU)
CCR5 knockdown (CCR5): successful in knocking down CCR5

anti-HPRT shRNA: shRNA that downregulates expression of the HPRT gene, SEQ ID NO:12 (GCACUGAAUAGAAAUGGUGGUUCAAGAGAUCACUAUUUCUAUUCAGUGCUU)
HPRT expression (HPRT): robustly repressed

Nc1nc(=S)c2[nH]cnc2[nH]1 [6TG, 6-thioguanine]
cell counts and viability after 6TG (Jurkat cells): eliminates cells that lack the anti-HPRT shRNA
activation as assessed by CD69 levels [1]: decrease in activation
growth of anti-HIV CAR T-cells (T-cells [2]; 6TG-treated vs not subjected to 6TG): equivalent
total T-cell growth (T-cells [2]; after treatment with 6TG): decreased over the course of culture
exhaustion markers (PD-1, Tim3, Lag-3) (T-cells [2]; following 6TG treatment): No noticeable changes
enrichment of anti-HIV CAR T-cells at 50 nM (T-cells [3]; 50 nM 6TG, single dose titration): most enrichment potential
effect on cell counts at 100 nM (T-cells [3]; 100 nM 6TG): loss of a number of T-cells transduced with the enrichment anti-HIV CAR construct
effect on cells at 1 M 6TG (T-cells [3]; 6TG, data not shown): loss of all T-cells
effect on cell counts at 10, 20, and 50 nM (T-cells [3]; 10, 20, and 50 nM 6TG): exerted toxic effects on the non-transduced T-cells
optimized dose of 6TG to enrich CAR T-cells (T-cells [3]; without impacting growth): 50 nM

— patent US20250154457A1, “T-CELLS FOR ANTI-HIV CAR-T THERAPY AND METHODS OF USE” (City of Hope, priority 2021, published 2025)
